These results are taken from PMC11558679, “Artificial Zymogen Based on Protein–Polymer Hybrids” (Biomacromolecules, 2024).

Read-outs that look alike come from different tables or passages of the source. Square brackets hold non-standard residues; d marks the D form. Peptide text beside a SMILES is read from it. * marks the point of attachment. OEGMA = oligo(ethylene glycol) methacrylate; PEG4 = NCCOCCOCCOCCOCCC(=O)O; Tos = Cc1ccc(S(=O)(=O)*)cc1; Isobutyryl = CC(C)C(=O)*; NHBn = c1ccc(CN*)cc1; Sar = CNCC(=O)O

The target of assay [1] is T1, native trypsin (Bos taurus, UniProt P00760).
T1 construct: purchased Sigma-Aldrich; host or cells: bovine pancreas
T1 sequence (P00760 24-246): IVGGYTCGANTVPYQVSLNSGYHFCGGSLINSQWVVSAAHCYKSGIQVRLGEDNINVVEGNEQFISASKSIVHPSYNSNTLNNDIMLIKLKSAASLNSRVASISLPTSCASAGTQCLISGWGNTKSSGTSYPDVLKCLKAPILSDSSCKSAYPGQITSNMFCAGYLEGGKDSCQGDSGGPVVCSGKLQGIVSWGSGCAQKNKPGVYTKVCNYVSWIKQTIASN
Put plainly: Inhibition of native trypsin by model peptide inhibitor and macromonomer. The following applies: for Ki: substrate Tos-GPR-pNA, 100 mM Tris-HCl and 20 mM CaCl2 (pH 8.0), 37 °C, [TR]0 = 8.4 nM, from secondary plot KM/Vmax app vs [I]0; for Km: read-out: apparent KM. The format is biochemical, bovine. An excerpt: (§1) Co mparison of K M of peptide substrates and K i of model peptide inhibitors and ma cro mono mers against native trypsin and chymotrypsin.
(§2) By observing the initial rate of enzyme activity in the presence of th e peptide inhibitor or macromonomer, the K i value of the inhibitor peptide and macromonomers can be determined (Figures S9 for native trypsin,and S14 for native ch ymotrypsin). The apparent KM and Vmax values are obtained b y si multaneousl y mixing nat ive trypsin or ch ymotr ypsin, a peptide substrat e, and a peptide inhibitor, and then monitoring the pNA produced b y enzymatically catal yzed hydrol ysis of the p eptide substrate. The apparent KM and Vmax values were calculated using EnzFitter with Michaelis-Menten curve fitting of substrate against initial velocity plots ( Fi g u re S10 and S12 and Table S1 and S2 for native trypsin, and Figure S15 and S17 and T ab l e S3 and S4 for native ch ymotr ypsin ). The plot of K M ass/Vma x app versus [I]0 or [macromonomers]0 yields a straight line with a y-intercept of K M/Vmax and a slope of K M/(Vmax ·Ki) (Figures S11 and S13 for native tr ypsin and S1 6 and S18 for native ch ymotrypsin, respsctiver y ). The inhibition constant (Ki) of the peptide inhibi tor or macromonomer was calculated b y simply dividing the y -inter cept […]
(1 picture or pasted object on this page, not shown here)
Table S1. Apparent KM a nd Vma x values for native trypsin incubated with Tos-GPR-pNA (substrate) and Tos-GPRP -NHBzl (inhibitor) at 37 °C in 100 mM Tris-HCl and 20 mM CaCl2 buffer (pH 8.0) […]
Buffer: 100 mM Tris-H Cl a nd 20 mM Ca Cl2 (pH 8.0) at 37 °C, [TR]0 = 8.4 nM, [TosGPRpNA]0 = 0 – 302 µ M a nd [TosGP RP Bzl]0 = 0 – 500 µM, Monitor Abs at 412 nm.
Figure S11. Secondary plot with calculated apparent K M and Vmax values were used to determine inhibition constants of the peptide inhibitor towards native trypsin.
Figure S12. Michaelis-Menten Plots adding a the macromonomer containing a CT -cleavable and a TR-inhibiting peptides (T o s GPRPr o -PEG4-AAPFAA OE GMA) to a native trypsin solution.
Table S2. Apparent KM a nd Vma x values for native trypsin incubated with Tos-GPR-pNA (substrate) and the macromonomer containing a CT -cleavable and a TR-inhibiting peptides (TosGPRPro-PEG4-AAPFAA OEGMA) at 37 °C in 100 mM Tris -HCl and 20 mM CaCl2 buffer (pH 8.0) .
Buffer: 100 mM Tris-H Cl a nd 20 mM Ca Cl2 (pH 8.0) at 37 °C, [TR]0 = 8.4 nM, [TosGPRpNA]0 = 0 – 241 µ M a nd [ macro mono mer]0 = 0 – 200 µM, Monitor Abs at 412 nm.

In assay [2] the target is T2, native chymotrypsin (Bos taurus, UniProt P00766).
T2 construct: α-Chymotrypsin from bovine pancreas, Type II (CT); purchased Sigma-Aldrich; host or cells: bovine pancreas
Kind of assay: Inhibition of native chymotrypsin by model peptide inhibitor and macromonomer. Type of assay: biochemical, bovine. As to conditions: for KM/Vmax: [sucAAPFpNA]0 = 0–768 µM.
Description: as §1, §2
Figure S1 5 .Michaelis -Menten Plots adding a peptide inhibitor to a native c hymot r yps i n s ol ut i on.
Table S3. Apparent KM a nd Vma x values for native […] incubated with suc-AAPF -pNA ( subst r at e) and IB -AAPFSar-OMe (inhibitor) at 37 °C in 100 mM sodium phosphate buffer (pH 8.0) […]
Buffer: 100 mM sodium phosphate (pH 8.0) at 37 °C, [CT]0 = 40 nM, [sucAAPFpNA]0 = 0 – 768 µ M and [IBAAPFSarOMe]0 = 0 – 500 µM, Monitor Abs at 412 nm.
Table S4. Apparent KM a nd Vma x values for native […] incubated with suc-AAPF -pNA ( subst r at e) and macromonomer containing a TR cleavable and CT inhibiting peptides
(IBAAPFSarPEG4GPRGGOEGMA) at 37 °C in 100 mM sodium phosphate buffer (pH 8.0) . […]
macro mono mer]0 = 0 – 400 µM, Monitor Abs at 412 nm.
Figure S18. Michaelis -Menten Plots adding a macromonomer containing a TR cleavable and CT inhibiting peptides (IBAAPFSarPEG4GPRGGOEGMA) to a native chymotrypsin solution.

Setting [3] is: [macromonomer]0 = 50 µM, [TosGPRpNA]0 = 0–241 µM.
Setting [4] is: [macromonomer]0 = 100 µM, [TosGPRpNA]0 = 0–241 µM.
The mark [5] stands for this setting: [macromonomer]0 = 150 µM, [TosGPRpNA]0 = 0–241 µM.
The mark [6] stands for this setting: [macromonomer]0 = 200 µM, [TosGPRpNA]0 = 0–241 µM.

Take `Cc1ccc(S(=O)(=O)NCC(=O)N2CCC[C@H]2C(=O)N[C@@H](CCCNC(=N)N)C(=O)N2CCC[C@H]2C(=O)NCc2ccccc2)cc1` [Tos-Gly-Pro-Arg-Pro-NHBzl] (Tos-GPRP-NHBn): the KM/Vmax in assay [1] ([inhibitor]0 = 125 µM, [TosGPRpNA]0 = 0–302 µM) was 48.3 ± 4.1 s; in assay [1] ([inhibitor]0 = 250 µM, [TosGPRpNA]0 = 0–302 µM) it was 56.3 ± 5.0 s; in assay [1] ([inhibitor]0 = 375 µM, [TosGPRpNA]0 = 0–302 µM), 73.4 ± 3.7 s; in assay [1] ([inhibitor]0 = 500 µM, [TosGPRpNA]0 = 0–302 µM), 84.3 ± 6.0 s. Moreover, the Ki in assay [1] (native TR) was 430 µM.

For the compound `COC(=O)CN(C)C(=O)[C@H](Cc1ccccc1)NC(=O)[C@@H]1CCCN1C(=O)[C@H](C)NC(=O)[C@H](C)NC(=O)C(C)C` [isobutyryl-Ala-Ala-Pro-Phe-Sar-OMe] (Isobutyryl-AAPF[Sar]-OMe), the Ki in assay [2] amounted to 660 µM. Further, the KM/Vmax was 62.9 ± 6.8 s in assay [2] ([inhibitor]0 = 125 µM), 75.9 ± 11.5 s in assay [2] ([inhibitor]0 = 250 µM), 84.8 ± 12.7 s in assay [2] ([inhibitor]0 = 375 µM) and 99.6 ± 11.7 s in assay [2] ([inhibitor]0 = 500 µM).

“Tos-Gly-Pro-Arg-Pro-PEG4-Ala-Ala-Pro-Phe-Ala-Ala-OEGMA (Tos-GPRP[PEG4]AAPFAA-{OEGMA}) [TosGPRPro-PEG4-AAPFAA OEGMA]” gave a Ki in assay [1] (native TR) of 150 µM.

As to “Tos-Gly-Pro-Arg-Pro-PEG4-Ala-Ala-Pro-Phe-Ala-Ala-OEGMA [TosGPRPro-PEG4-AAPFAA OEGMA]”, in assay [1] (setting [3]), the KM/Vmax is on record as 62.9 ± 7.3 s; the “apparent Vmax” value turned out to be 0.45 ± 0.02 µM/s; the kcat (in general, the number of substrate molecules converted per active site and unit of time at saturation) amounted to 53.4 ± 2.3 s⁻¹; the kcat/KM – broadly, the turnover number divided by the Michaelis constant – was found to be 1.89e+06 ± 310000 M⁻¹ s⁻¹. In addition, the Km – broadly, the substrate concentration at which the rate is half of its maximum – in assay [1] (setting [3]) is 28.2 ± 4.5 µM. In addition, in assay [1] (setting [4]), the KM/Vmax is 77.9 ± 6.3 s, the “apparent Vmax” value was found to be 0.24 ± 0.01 µM/s, the catalytic constant (kcat) was 28.7 ± 0.7 s⁻¹ and the kcat/KM was found to be 1.53e+06 ± 170000 M⁻¹ s⁻¹. Also, in assay [1] (setting [4]), the Km was 18.8 ± 2.1 µM. Besides, in assay [1] (setting [5]), the KM/Vmax turned out to be 86.3 ± 7.8 s, the “apparent Vmax” value came out at 0.31 ± 0.01 µM/s, the turnover number (kcat) was 36.5 ± 1.4 s⁻¹ and the kcat/KM is 1.38e+06 ± 180000 M⁻¹ s⁻¹. For the same compound, in assay [1] (setting [5]), the Km is 26.4 ± 3.2 µM. Also, in assay [1] (setting [6]), the KM/Vmax was 97.7 ± 12.1 s, the “apparent Vmax” value amounted to 0.36 ± 0.02 µM/s, the kcat worked out at 43.3 ± 2.1 s⁻¹ and the kcat/KM was 1.22e+06 ± 210000 M⁻¹ s⁻¹. The Km in assay [1] (setting [6]) is 35.5 ± 6 µM. The “Ki relative to KM (20 μM) of Tos-Gly-Pro-Arg-pNA” value in assay [1] (native TR) was approximately 7.5 fold.
